Source: the kinase profiling compilation of Christmann-Franck et al. (2016)

How the values were obtained:
Test in all cases: KINOMEscan competition binding
Conditions in all cases: compound 10.0 µM
ADCK4 (human) = ADCK4 (human) (UniProt Q96D53)
AKT2 (human) = AKT2 (human) (UniProt P31751)
BRSK1 (human) = BRSK1 (human) (UniProt Q8TDC3)
CAMK2B (human) = CAMK2B (human) (UniProt Q13554)
CDK9 (human) = CDK9 (human) (UniProt P50750)
CSF1R (human) = CSF1R (human) (UniProt P07333)
CSNK1E (human) = CSNK1E (human) (UniProt P49674)
CSNK1G2 (human) = CSNK1G2 (human) (UniProt P78368)
EPHA6 (human) = EPHA6 (human) (UniProt Q9UF33)
EPHB4 (human) = EPHB4 (human) (UniProt P54760)
ERBB2 (human) = ERBB2 (human) (UniProt P04626)
FER (human) = FER (human) (UniProt P16591)
KDR (human) = KDR (human) (UniProt P35968)
LATS2 (human) = LATS2 (human) (UniProt Q9NRM7)
MAP4K4 (human) = MAP4K4 (human) (UniProt O95819)
NEK9 (human) = NEK9 (human) (UniProt Q8TD19)
PIM3 (human) = PIM3 (human) (UniProt Q86V86)
PKN2 (human) = PKN2 (human) (UniProt Q16513)
RPS6KA1 KD1 (human) = RPS6KA1 KD1 (human) (UniProt Q15418)
RPS6KA5 KD2 (human) = RPS6KA5 KD2 (human) (UniProt O75582)
SIK2 (human) = SIK2 (human) (UniProt Q9H0K1)
SLK (human) = SLK (human) (UniProt Q9H2G2)
SRPK1 (human) = SRPK1 (human) (UniProt Q96SB4)
STK25 (human) = STK25 (human) (UniProt O00506)
STK32C (human) = STK32C (human) (UniProt Q86UX6)
TIE1 (human) = TIE1 (human) (UniProt P35590)
TNK1 (human) = TNK1 (human) (UniProt Q13470)
ZAP70 (human) = ZAP70 (human) (UniProt P43403)
CDKL2 (human) = CDKL2 (human) (UniProt Q92772)
MINK1 (human) = MINK1 (human) (UniProt Q8N4C8)
PIK3CG (human) = PIK3CG (human) (UniProt P48736)
RIOK2 (human) = RIOK2 (human) (UniProt Q9BVS4)

Chain of STK32C (human) (Q86UX6 whole entry, looked up): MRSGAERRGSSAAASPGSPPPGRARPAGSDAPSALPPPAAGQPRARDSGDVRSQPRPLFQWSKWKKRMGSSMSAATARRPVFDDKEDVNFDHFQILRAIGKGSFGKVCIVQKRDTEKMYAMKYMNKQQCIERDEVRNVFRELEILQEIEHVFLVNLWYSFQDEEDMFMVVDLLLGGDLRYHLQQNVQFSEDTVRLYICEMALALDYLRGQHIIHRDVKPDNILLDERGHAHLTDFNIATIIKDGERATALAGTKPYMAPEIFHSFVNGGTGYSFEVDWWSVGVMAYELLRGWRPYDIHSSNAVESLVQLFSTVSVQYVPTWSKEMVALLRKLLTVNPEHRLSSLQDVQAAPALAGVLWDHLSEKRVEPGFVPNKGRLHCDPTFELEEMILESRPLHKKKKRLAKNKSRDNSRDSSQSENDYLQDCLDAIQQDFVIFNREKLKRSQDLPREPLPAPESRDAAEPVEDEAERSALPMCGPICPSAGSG
Chain of SRPK1 (human) (Q96SB4 whole entry, looked up): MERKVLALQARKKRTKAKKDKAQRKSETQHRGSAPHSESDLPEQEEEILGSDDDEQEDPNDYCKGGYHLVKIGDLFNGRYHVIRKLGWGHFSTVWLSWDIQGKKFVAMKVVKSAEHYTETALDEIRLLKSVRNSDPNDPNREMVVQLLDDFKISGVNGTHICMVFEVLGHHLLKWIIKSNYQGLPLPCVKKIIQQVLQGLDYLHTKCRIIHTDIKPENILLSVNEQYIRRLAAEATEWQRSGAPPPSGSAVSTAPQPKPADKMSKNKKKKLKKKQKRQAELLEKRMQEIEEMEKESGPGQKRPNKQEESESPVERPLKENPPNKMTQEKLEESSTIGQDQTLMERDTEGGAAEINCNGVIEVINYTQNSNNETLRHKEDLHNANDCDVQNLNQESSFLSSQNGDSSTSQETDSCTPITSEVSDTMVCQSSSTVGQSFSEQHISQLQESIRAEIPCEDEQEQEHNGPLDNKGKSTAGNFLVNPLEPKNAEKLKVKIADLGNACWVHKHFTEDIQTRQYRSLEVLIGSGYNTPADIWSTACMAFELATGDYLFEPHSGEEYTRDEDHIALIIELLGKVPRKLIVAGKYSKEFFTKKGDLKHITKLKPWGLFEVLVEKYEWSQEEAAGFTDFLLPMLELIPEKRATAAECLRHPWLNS
Chain of LATS2 (human) (Q9NRM7 whole entry, looked up): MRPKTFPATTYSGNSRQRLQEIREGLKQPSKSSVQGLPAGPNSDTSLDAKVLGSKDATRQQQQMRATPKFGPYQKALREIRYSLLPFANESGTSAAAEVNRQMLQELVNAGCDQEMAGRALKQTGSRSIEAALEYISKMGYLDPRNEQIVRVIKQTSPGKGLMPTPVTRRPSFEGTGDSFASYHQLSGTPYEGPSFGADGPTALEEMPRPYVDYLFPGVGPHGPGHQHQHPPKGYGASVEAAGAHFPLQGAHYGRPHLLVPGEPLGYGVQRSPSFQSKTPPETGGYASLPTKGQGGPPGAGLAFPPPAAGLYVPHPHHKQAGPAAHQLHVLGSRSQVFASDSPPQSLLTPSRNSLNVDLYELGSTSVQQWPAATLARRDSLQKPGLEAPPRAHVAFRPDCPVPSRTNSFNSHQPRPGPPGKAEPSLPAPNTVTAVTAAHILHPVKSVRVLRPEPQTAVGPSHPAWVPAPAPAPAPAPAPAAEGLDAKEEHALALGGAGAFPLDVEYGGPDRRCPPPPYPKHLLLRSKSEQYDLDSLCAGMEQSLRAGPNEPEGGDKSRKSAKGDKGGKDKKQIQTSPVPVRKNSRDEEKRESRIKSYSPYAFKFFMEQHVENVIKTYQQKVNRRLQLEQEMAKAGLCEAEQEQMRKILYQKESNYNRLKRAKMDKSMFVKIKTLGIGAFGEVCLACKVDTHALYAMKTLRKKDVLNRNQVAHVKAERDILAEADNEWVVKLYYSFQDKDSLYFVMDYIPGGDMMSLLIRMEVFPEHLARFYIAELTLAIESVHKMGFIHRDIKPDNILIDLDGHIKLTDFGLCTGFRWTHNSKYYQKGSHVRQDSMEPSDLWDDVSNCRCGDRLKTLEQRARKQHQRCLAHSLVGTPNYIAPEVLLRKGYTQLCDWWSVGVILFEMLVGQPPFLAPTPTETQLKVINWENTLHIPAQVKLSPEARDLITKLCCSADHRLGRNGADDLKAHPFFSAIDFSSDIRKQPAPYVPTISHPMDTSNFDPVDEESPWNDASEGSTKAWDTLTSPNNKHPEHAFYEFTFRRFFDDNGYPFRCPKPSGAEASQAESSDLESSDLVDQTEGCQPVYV
Chain of CAMK2B (human) (Q13554 whole entry, looked up): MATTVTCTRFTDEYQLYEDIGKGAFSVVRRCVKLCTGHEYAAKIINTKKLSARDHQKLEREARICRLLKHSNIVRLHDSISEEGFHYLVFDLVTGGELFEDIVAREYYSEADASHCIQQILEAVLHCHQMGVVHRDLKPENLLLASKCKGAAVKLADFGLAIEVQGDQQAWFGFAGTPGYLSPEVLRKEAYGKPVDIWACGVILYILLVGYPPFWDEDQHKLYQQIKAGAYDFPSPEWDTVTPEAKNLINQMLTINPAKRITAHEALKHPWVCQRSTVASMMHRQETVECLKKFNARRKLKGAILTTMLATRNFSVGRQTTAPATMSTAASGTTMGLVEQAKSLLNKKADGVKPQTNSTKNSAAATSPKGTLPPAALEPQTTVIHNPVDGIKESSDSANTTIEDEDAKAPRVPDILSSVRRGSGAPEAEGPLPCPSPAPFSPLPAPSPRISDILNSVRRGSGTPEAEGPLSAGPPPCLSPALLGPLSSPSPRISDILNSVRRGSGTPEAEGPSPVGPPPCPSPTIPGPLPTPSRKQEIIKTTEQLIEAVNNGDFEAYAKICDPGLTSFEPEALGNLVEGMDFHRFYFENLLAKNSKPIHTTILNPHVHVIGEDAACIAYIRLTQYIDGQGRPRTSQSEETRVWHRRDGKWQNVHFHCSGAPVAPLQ
Chain of CDK9 (human) (P50750 whole entry, looked up): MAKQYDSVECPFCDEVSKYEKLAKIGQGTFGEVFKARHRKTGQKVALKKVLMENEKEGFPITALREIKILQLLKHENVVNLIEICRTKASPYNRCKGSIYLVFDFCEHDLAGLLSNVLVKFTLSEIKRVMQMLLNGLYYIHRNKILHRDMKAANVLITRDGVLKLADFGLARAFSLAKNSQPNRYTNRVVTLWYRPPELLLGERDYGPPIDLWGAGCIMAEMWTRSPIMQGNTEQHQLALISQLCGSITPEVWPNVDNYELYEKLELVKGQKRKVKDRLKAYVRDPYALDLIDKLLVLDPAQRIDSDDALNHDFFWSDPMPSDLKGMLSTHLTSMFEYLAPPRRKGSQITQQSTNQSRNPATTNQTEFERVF
Chain of BRSK1 (human) (Q8TDC3 whole entry, looked up): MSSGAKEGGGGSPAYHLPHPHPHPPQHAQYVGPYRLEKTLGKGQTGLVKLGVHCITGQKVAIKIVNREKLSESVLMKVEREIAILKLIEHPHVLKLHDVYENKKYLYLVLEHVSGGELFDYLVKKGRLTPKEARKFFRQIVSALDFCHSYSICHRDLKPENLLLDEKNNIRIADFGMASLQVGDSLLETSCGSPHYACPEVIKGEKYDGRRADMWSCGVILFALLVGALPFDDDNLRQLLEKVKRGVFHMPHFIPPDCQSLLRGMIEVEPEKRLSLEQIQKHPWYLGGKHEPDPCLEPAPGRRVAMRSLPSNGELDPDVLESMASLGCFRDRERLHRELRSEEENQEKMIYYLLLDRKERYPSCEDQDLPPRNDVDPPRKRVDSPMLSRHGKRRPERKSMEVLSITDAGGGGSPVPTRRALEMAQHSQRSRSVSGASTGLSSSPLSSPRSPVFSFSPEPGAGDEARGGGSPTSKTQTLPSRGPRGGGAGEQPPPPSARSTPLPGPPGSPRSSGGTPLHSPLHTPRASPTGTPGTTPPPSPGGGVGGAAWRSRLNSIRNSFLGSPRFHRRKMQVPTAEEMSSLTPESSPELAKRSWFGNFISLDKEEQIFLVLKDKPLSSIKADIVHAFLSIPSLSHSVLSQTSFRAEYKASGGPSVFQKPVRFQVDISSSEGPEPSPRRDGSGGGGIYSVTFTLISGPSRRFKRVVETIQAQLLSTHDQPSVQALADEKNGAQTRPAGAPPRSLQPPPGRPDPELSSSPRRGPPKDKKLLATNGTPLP
Chain of EPHB4 (human) (P54760 whole entry, looked up): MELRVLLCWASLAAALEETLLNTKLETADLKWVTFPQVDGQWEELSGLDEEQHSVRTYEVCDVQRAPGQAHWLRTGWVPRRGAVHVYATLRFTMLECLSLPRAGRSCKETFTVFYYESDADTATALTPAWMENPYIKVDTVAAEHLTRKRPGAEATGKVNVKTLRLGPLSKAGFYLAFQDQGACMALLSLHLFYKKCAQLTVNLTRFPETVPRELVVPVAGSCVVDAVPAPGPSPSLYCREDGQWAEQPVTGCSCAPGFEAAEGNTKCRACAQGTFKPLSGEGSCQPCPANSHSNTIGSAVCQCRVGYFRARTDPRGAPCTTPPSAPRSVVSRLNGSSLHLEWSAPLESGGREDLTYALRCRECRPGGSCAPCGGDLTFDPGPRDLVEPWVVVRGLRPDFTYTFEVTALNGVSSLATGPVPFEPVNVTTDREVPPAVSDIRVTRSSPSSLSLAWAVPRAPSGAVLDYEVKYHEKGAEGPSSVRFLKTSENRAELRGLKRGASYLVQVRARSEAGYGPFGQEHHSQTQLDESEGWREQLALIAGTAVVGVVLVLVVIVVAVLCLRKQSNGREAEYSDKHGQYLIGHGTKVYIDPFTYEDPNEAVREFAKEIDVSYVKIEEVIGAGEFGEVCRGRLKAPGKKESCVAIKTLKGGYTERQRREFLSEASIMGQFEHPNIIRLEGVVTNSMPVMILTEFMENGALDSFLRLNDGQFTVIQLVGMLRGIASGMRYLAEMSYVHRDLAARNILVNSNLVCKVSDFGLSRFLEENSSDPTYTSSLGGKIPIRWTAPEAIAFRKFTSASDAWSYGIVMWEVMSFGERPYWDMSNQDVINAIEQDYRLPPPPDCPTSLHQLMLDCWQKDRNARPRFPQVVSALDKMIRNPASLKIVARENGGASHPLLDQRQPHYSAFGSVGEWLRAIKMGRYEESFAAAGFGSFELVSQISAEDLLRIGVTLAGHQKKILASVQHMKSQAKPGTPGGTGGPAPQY

kinase still bound, per cent of control (ADCK4 (human)) | kinase still bound, per cent of control (AKT2 (human)) | kinase still bound, per cent of control (BRSK1 (human)) | kinase still bound, per cent of control (CAMK2B (human)) | kinase still bound, per cent of control (CDK9 (human)) | kinase still bound, per cent of control (CSF1R (human)) | kinase still bound, per cent of control (CSNK1E (human)) | kinase still bound, per cent of control (CSNK1G2 (human)) | kinase still bound, per cent of control (EPHA6 (human)) | kinase still bound, per cent of control (EPHB4 (human)) | kinase still bound, per cent of control (ERBB2 (human)) | kinase still bound, per cent of control (FER (human)) | kinase still bound, per cent of control (KDR (human)) | kinase still bound, per cent of control (LATS2 (human)) | kinase still bound, per cent of control (MAP4K4 (human)) | kinase still bound, per cent of control (PIM3 (human)) | kinase still bound, per cent of control (PKN2 (human)) | kinase still bound, per cent of control (RPS6KA1 KD1 (human)) | kinase still bound, per cent of control (RPS6KA5 KD2 (human)) | SMILES | kinase still bound, per cent of control (NEK9 (human)) | other results
100% | 100% | 100% | 100% | 100% | 0.35% | 100% | 100% | 0.35% | 0.3% | 100% | 4.4% | 4.5% | 100% | 7% | 100% | 100% | 100% | 100% | COc1ccc(N(C(=O)Oc2cc(C(=O)Nc3cccc(C(F)(F)F)c3)ccc2C)c2ccnc(Nc3ccc(N4CCN(C)CC4)cc3)n2)c(OC)c1 | 100% | kinase still bound, per cent of control (SIK2 (human)): 1.9%; kinase still bound, per cent of control (SLK (human)): 0.15%; kinase still bound, per cent of control (SRPK1 (human)): 100%; kinase still bound, per cent of control (STK25 (human)): 100%; kinase still bound, per cent of control (STK32C (human)): 100%; kinase still bound, per cent of control (TIE1 (human)): 3.8%; kinase still bound, per cent of control (TNK1 (human)): 1.6%; kinase still bound, per cent of control (ZAP70 (human)): 100%
100% | 100% | 100% | 100% | 100% | 100% | 100% | 100% | 11% | 100% | 100% | 15% | 100% | 100% | 100% | 100% | 100% | 100% | 100% | COc1cc(C)c(Sc2cnc(NC(=O)c3ccc(CNC(C)C(C)C)cc3)s2)cc1C(=O)N1CCN(C(C)=O)CC1 (configuration not stated) | 100% | kinase still bound, per cent of control (CDKL2 (human)): 100%; kinase still bound, per cent of control (MINK1 (human)): 100%; kinase still bound, per cent of control (PIK3CG (human)): 100%; kinase still bound, per cent of control (RIOK2 (human)): 100%; kinase still bound, per cent of control (SIK2 (human)): 100%; kinase still bound, per cent of control (SLK (human)): 31%; kinase still bound, per cent of control (SRPK1 (human)): 100%; kinase still bound, per cent of control (STK25 (human)): 100%; kinase still bound, per cent of control (STK32C (human)): 100%; kinase still bound, per cent of control (TIE1 (human)): 11%; kinase still bound, per cent of control (TNK1 (human)): 100%; kinase still bound, per cent of control (ZAP70 (human)): 100%
0% | 100% | 100% | 100% | 100% | 100% | 34% | 100% | 100% | 100% | 18% | 0.6% | 100% | 100% | 100% | 100% | 100% | 100% | 100% | COc1cc(N2CCC(C(N)=O)CC2)ccc1Nc1nc(N)c(Cl)c(Nc2ccccc2S(=O)(=O)C(C)C)n1 | 100% | kinase still bound, per cent of control (CDKL2 (human)): 100%; kinase still bound, per cent of control (MINK1 (human)): 100%; kinase still bound, per cent of control (PIK3CG (human)): 100%; kinase still bound, per cent of control (RIOK2 (human)): 100%; kinase still bound, per cent of control (SIK2 (human)): 100%; kinase still bound, per cent of control (SLK (human)): 2.6%; kinase still bound, per cent of control (SRPK1 (human)): 100%; kinase still bound, per cent of control (STK25 (human)): 100%; kinase still bound, per cent of control (STK32C (human)): 33%; kinase still bound, per cent of control (TIE1 (human)): 29%; kinase still bound, per cent of control (TNK1 (human)): 3.8%; kinase still bound, per cent of control (ZAP70 (human)): 100%
